Data: patent publication US4212862A, “O,O-Diaryl-1-acyloxy-2,2,2-trichloroethylphosphonates and fungicides based thereon” (priority 1978, dated 1980)
Where “and” joins values, the source holds several entries; their conditions need not be identical. Identical values can stand only once. Like-named read-outs stand apart in the source and are kept apart here.

Assays:
[1] = Acute peroral toxicity for warm-blooded animals (LD50, LD90); assay type: in vivo, white mice; conditions: mouse, in vivo, po, Table 2; peroral; read-out: LD50 for white mice
Experimental: Toxicity (LD50) was evaluated on males and females of white mice with peroral administration of the compounds. A portion of the test compound was mixed with the emulsifier Twin-20 and diluted with distilled water to the required working concentration. Administration of the preparation was effected by means of a metal probe and syringe directly into the stomach of test animals 2-3 hours after feeding. The tests were performed using several doses, 6 animals per each dose. Subsequent observation was effected for two weeks.

[2] = test system: stalk rust of wheat (Puccinia graminis); assay type: in vivo
[3] = test system: stalk rust (Puccinia graminis f. tritici); assay type: in vivo; conditions: in vivo

CCCCC(CC)C(=O)OC(C(Cl)(Cl)Cl)P(=O)(Oc1ccccc1)Oc1ccccc1 (stereo not drawn) [V]
LD50 at 336 h [1]: > 1000 mg/kg | Percentage of injury lowered ([2]; in vivo): 74% and 61% | Percentage of plants injured with rust, 1-st evaluation [3]: 0.5% | Percentage of plants injured with rust, 2-nd evaluation [3]: 13.0% | Weight of 1,000 grains [3]: 14.8 g | Yield [3]: 9.50 c/ha

CCCCC(CC)C(=O)OC(C(Cl)(Cl)Cl)P(=O)(Oc1ccccc1C)Oc1ccccc1C (stereo not drawn) [X]
LD50 at 336 h [1]: > 1000 mg/kg

CC(=O)OC(C(Cl)(Cl)Cl)P(=O)(Oc1ccc(Cl)cc1)Oc1ccc(Cl)cc1 (stereo not drawn) [XXX]
LD50 at 336 h [1]: > 1000 mg/kg | Percentage of injury lowered ([2]; in vivo): 89% and 68% | Percentage of plants injured with rust, 1-st evaluation [3]: 0.5% | Percentage of plants injured with rust, 2-nd evaluation [3]: 7.0% | Weight of 1,000 grains [3]: 20.9 g | Yield [3]: 16.70 c/ha

CCCCCCCCc1ccc(OP(=O)(Oc2ccc(CCCCCCCC)cc2)C(OC(C)=O)C(Cl)(Cl)Cl)cc1 (stereo not drawn) [XXIV]
LD50 at 336 h [1]: > 1000 mg/kg | Percentage of injury lowered ([2]; in vivo): 62% and 35% | Percentage of plants injured with rust, 1-st evaluation [3]: 0.5% | Percentage of plants injured with rust, 2-nd evaluation [3]: 12.0% | Weight of 1,000 grains [3]: 13.5 g | Yield [3]: 8.00 c/ha

O=C(OC(C(Cl)(Cl)Cl)P(=O)(Oc1ccc(F)cc1)Oc1ccc(F)cc1)c1ccccc1 (stereo not drawn) [XXXVII]
LD50 at 336 h [1]: > 1000 mg/kg

CC(=O)OC(C(Cl)(Cl)Cl)P(=O)(Oc1cccc2ccccc12)Oc1cccc2ccccc12 (stereo not drawn) [XLII]
LD50 at 336 h [1]: > 1000 mg/kg | Percentage of injury lowered ([2]; in vivo): 92% and 87%

O=P(Oc1ccccc1)(Oc1ccccc1)C(O)C(Cl)(Cl)Cl (stereo not drawn) [reference compound]
LD50 at 336 h [1]: > 400 mg/kg | Percentage of injury lowered ([2]; in vivo): 71% and 61%

CCCCCCC(=O)OC(C(Cl)(Cl)Cl)P(=O)(Oc1ccccc1)Oc1ccccc1 (stereo not drawn) [IV]
LD50 at 336 h [1]: > 1000 mg/kg | Percentage of injury lowered ([2]; in vivo): 98% and 74% | Percentage of plants injured with rust, 1-st evaluation [3]: 0.5% | Percentage of plants injured with rust, 2-nd evaluation [3]: 6.5% | Weight of 1,000 grains [3]: 23.8 g | Yield [3]: 20.00 c/ha

CCCCCCCCc1ccc(OP(=O)(Oc2ccc(CCCCCCCC)cc2)C(OC(=O)CC)C(Cl)(Cl)Cl)cc1 (stereo not drawn) [XXV]
LD50 at 336 h [1]: > 1000 mg/kg | Percentage of plants injured with rust, 1-st evaluation [3]: 0.5% | Percentage of plants injured with rust, 2-nd evaluation [3]: 10.0% | Weight of 1,000 grains [3]: 16.0 g | Yield [3]: 11.10 c/ha

CCC(=O)OC(C(Cl)(Cl)Cl)P(=O)(Oc1ccc(Cl)c(C)c1)Oc1ccc(Cl)c(C)c1 (stereo not drawn) [XLI]
LD50 at 336 h [1]: > 1000 mg/kg | Percentage of injury lowered ([2]; in vivo): 91% and 53%

CCC(=O)OC(C(Cl)(Cl)Cl)P(=O)(Oc1cccc(C)c1)Oc1cccc(C)c1 (stereo not drawn) [XIII]
LD50 at 336 h [1]: > 1000 mg/kg | Percentage of injury lowered ([2]; in vivo): 98% and 85% | Percentage of plants injured with rust, 1-st evaluation [3]: 0.5% | Percentage of plants injured with rust, 2-nd evaluation [3]: 10.0% | Weight of 1,000 grains [3]: 16.9 g | Yield [3]: 12.05 c/ha

Cc1cccc(OP(=O)(Oc2cccc(C)c2)C(OC(=O)c2ccccc2)C(Cl)(Cl)Cl)c1 (stereo not drawn) [XVII]
LD50 at 336 h [1]: > 1000 mg/kg

COP(=O)(OC)C(OC(C)=O)C(Cl)(Cl)Cl (stereo not drawn) [chloracetophos, O,O-dimethyl-1-acetoxy-2,2,2-trichloroethylphosphonate, reference compound]
LD50 at 336 h [1]: > 1000 mg/kg | Percentage of injury lowered ([2]; at a concentration of 0.02%, sprayed 3 days before inoculation): 10% | Percentage of injury lowered ([2]; at a concentration of 0.1%, sprayed 3 days before inoculation): 54%

CC(=O)OC(C(Cl)(Cl)Cl)P(=O)(Oc1cccc(C)c1)Oc1cccc(C)c1 (stereo not drawn) [XII]
LD50 at 336 h [1]: > 1000 mg/kg | Percentage of injury lowered ([2]; in vivo): 86% and 68% | Percentage of plants injured with rust, 1-st evaluation [3]: 0.5% | Percentage of plants injured with rust, 2-nd evaluation [3]: 8.0% | Weight of 1,000 grains [3]: 16.1 g | Yield [3]: 11.00 c/ha

CCCCC(CC)C(=O)OC(C(Cl)(Cl)Cl)P(=O)(Oc1cccc(C)c1)Oc1cccc(C)c1 (stereo not drawn) [XVI]
LD50 at 336 h [1]: > 1000 mg/kg | Percentage of injury lowered ([2]; in vivo): 86%

CCCC(=O)OC(C(Cl)(Cl)Cl)P(=O)(Oc1ccc(C)cc1)Oc1ccc(C)cc1 (stereo not drawn) [XX]
LD50 at 336 h [1]: > 1000 mg/kg | Percentage of injury lowered ([2]; in vivo): 97% | Percentage of plants injured with rust, 1-st evaluation [3]: 0.5% | Percentage of plants injured with rust, 2-nd evaluation [3]: 7.5% | Weight of 1,000 grains [3]: 18.2 g | Yield [3]: 13.45 c/ha

CCC(=O)OC(C(Cl)(Cl)Cl)P(=O)(Oc1ccc(-c2ccccc2)cc1)Oc1ccc(-c2ccccc2)cc1 (stereo not drawn) [XLVII]
LD50 at 336 h [1]: > 1000 mg/kg

CCCCCCC(=O)OC(C(Cl)(Cl)Cl)P(=O)(Oc1ccc(F)cc1)Oc1ccc(F)cc1 (stereo not drawn) [XXXV]
LD50 at 336 h [1]: > 1000 mg/kg

CCCC(=O)OC(C(Cl)(Cl)Cl)P(=O)(Oc1ccccc1C)Oc1ccccc1C (stereo not drawn) [IX]
LD50 at 336 h [1]: > 1000 mg/kg

CCC(=O)OC(C(Cl)(Cl)Cl)P(=O)(Oc1ccc(Cl)cc1C)Oc1ccc(Cl)cc1C (stereo not drawn) [XXXIX]
LD50 at 336 h [1]: > 500 mg/kg

CCC(=O)OC(C(Cl)(Cl)Cl)P(=O)(Oc1ccccc1C)Oc1ccccc1C (stereo not drawn) [VIII]
LD50 at 336 h [1]: > 1000 mg/kg | Percentage of injury lowered ([2]; in vivo): 96% and 76% | Percentage of plants injured with rust, 1-st evaluation [3]: 0.5% | Percentage of plants injured with rust, 2-nd evaluation [3]: 8.5% | Weight of 1,000 grains [3]: 15.3 g | Yield [3]: 10.15 c/ha

CCCC(=O)OC(C(Cl)(Cl)Cl)P(=O)(Oc1cccc2ccccc12)Oc1cccc2ccccc12 (stereo not drawn) [XLIV]
LD50 at 336 h [1]: > 1000 mg/kg | Percentage of injury lowered ([2]; in vivo): 71%

CC(=O)OC(C(Cl)(Cl)Cl)P(=O)(Oc1ccc(Cl)c(C)c1)Oc1ccc(Cl)c(C)c1 (stereo not drawn) [XL]
LD50 at 336 h [1]: > 1000 mg/kg | Percentage of injury lowered ([2]; in vivo): 95% and 76%

CCCC(=O)OC(C(Cl)(Cl)Cl)P(=O)(Oc1cccc(C)c1)Oc1cccc(C)c1 (stereo not drawn) [XIV]
LD50 at 336 h [1]: > 1000 mg/kg | Percentage of injury lowered ([2]; in vivo): 99% and 92% | Percentage of plants injured with rust, 1-st evaluation [3]: 0.5% | Percentage of plants injured with rust, 2-nd evaluation [3]: 7.0% | Weight of 1,000 grains [3]: 17.2 g | Yield [3]: 12.00 c/ha

CC(=O)OC(C(Cl)(Cl)Cl)P(=O)(Oc1ccc(Cl)cc1C)Oc1ccc(Cl)cc1C (stereo not drawn) [XXXVIII]
LD50 at 336 h [1]: > 500 mg/kg | Percentage of injury lowered ([2]; in vivo): 92% and 53%

CCCCCCC(=O)OC(C(Cl)(Cl)Cl)P(=O)(Oc1ccc(-c2ccccc2)cc1)Oc1ccc(-c2ccccc2)cc1 (stereo not drawn) [XLV]
LD50 at 336 h [1]: > 1000 mg/kg | Percentage of injury lowered ([2]; in vivo): 72%

Cc1ccccc1OP(=O)(Oc1ccccc1C)C(OC(=O)c1ccccc1)C(Cl)(Cl)Cl (stereo not drawn) [XI]
LD50 at 336 h [1]: > 1000 mg/kg | Percentage of plants injured with rust, 1-st evaluation [3]: 0.5% | Percentage of plants injured with rust, 2-nd evaluation [3]: 8.0% | Weight of 1,000 grains [3]: 17.8 g | Yield [3]: 12.40 c/ha

CC(=O)OC(C(Cl)(Cl)Cl)P(=O)(Oc1ccc(-c2ccccc2)cc1)Oc1ccc(-c2ccccc2)cc1 (stereo not drawn) [XLVI]
LD50 at 336 h [1]: > 1000 mg/kg

CCC(=O)OC(C(Cl)(Cl)Cl)P(=O)(Oc1cccc2ccccc12)Oc1cccc2ccccc12 (stereo not drawn) [XLIII]
LD50 at 336 h [1]: > 1000 mg/kg | Percentage of injury lowered ([2]; in vivo): 89% and 72%

CCCCC(CC)C(=O)OC(C(Cl)(Cl)Cl)P(=O)(Oc1ccc(F)cc1)Oc1ccc(F)cc1 (stereo not drawn) [XXXVI]
LD50 at 336 h [1]: > 1000 mg/kg

CCCC(=O)OC(C(Cl)(Cl)Cl)P(=O)(Oc1ccc(F)cc1)Oc1ccc(F)cc1 (stereo not drawn) [XXXIV]
Percentage of injury lowered ([2]; in vivo): 99% and 95% | Percentage of plants injured with rust, 1-st evaluation [3]: 0.5% | Percentage of plants injured with rust, 2-nd evaluation [3]: 7.4% | Weight of 1,000 grains [3]: 19.6 g | Yield [3]: 15.10 c/ha

CCC(=O)OC(C(Cl)(Cl)Cl)P(=O)(Oc1ccc(F)cc1)Oc1ccc(F)cc1 (stereo not drawn) [XXXIII]
LD50 at 336 h [1]: > 1000 mg/kg | Percentage of injury lowered ([2]; in vivo): 100% and 62%

CC(=O)OC(C(Cl)(Cl)Cl)P(=O)(Oc1ccc(F)cc1)Oc1ccc(F)cc1 (stereo not drawn) [XXXII]
LD50 at 336 h [1]: > 1000 mg/kg | Percentage of injury lowered ([2]; in vivo): 100% and 84%

CCCC(=O)OC(C(Cl)(Cl)Cl)P(=O)(Oc1ccc(-c2ccccc2)cc1)Oc1ccc(-c2ccccc2)cc1 (stereo not drawn) [XLVIII]
LD50 at 336 h [1]: > 1000 mg/kg | Percentage of injury lowered ([2]; in vivo): 67%
